Laboratory results as given in patent US20260364175A1, “COMPOSITIONS FOR DRUG ADMINISTRATION” (Aegis Therapeutics, LLC, priority 2018, published 2026).
Values joined by “and” are separate entries in the source; they are usually repeats but may differ in a detail not shown here. Equal entries are not always repeated. Structures can show the parent of a compound that is named as a salt.

Tests used:
[1] = Octreotide pharmacokinetics after s.c. and oral delivery; conditions: for CL/F: po; for t1/2 1: first peak; for t1/2 2: second peak
Experimental: C prior to administration. […] Death is confirmed by cervical dislocation. […] Euthanasia is confirmed by cervical dislocation.
Pharmacokinetic analyses is carried out as follows.
Serum half-life (t1/2) is determined as follows.

blood glucose [2] = experiment: Ocular administration of glucagon plus surfactant, blood glucose in rats; assay type: in vivo, rat; conditions: for Blood Glucose Concentration: 0.5% surfactant, glucagon eye drops after insulin; for effect on ocular glucagon absorption / blood D-glucose: eye drops, 0.5% surfactant plus glucagon (30 μg)
blood glucose [3] = experiment: Ocular administration of insulin plus absorption enhancer, blood glucose in anesthetized rats; assay type: in vivo, rat (male Sprague-Dawley); conditions: for effect on blood glucose / ocular insulin absorption: 0.5% enhancer with 0.2% insulin eye drops; for Blood Glucose Concentration: 0.5% surfactant, insulin eye drops; for effect on ocular insulin absorption (alkyl chain length comparison): alkylmaltosides with insulin eye drops
[4] = cited from earlier work
[5] = Buccal fast-dispersing melatonin tablets in rabbits; conditions: for bioavailability: fast-disintegrating tablet, buccal
Experimental: Thereafter, the animals return to consciousness. At individual time point over a two hour period, 1 mL blood samples are collected from the central ear artery. […] All samples are stored at −70 °C until assaying for melatonin. Melatonin is measured using a commercial ELISA kit manufactured by GenWay Biotech Inc., San Diego, CA.

blood glucose [6] = experiment: Intranasal insulin with/without […] TDM, anesthesia-induced hyperglycemia model; assay type: in vivo, mouse
Source text: Intranasal administration of drugs or agents are possible in animal models e.g., mice and rats, although the nasal opening in is very small. […] Hyperglycemic animals were induced by an intraperitoneal (IP) injection containing xylazine-ketamine and blood glucose levels were monitored over a period of time.

[7] = insulin alone intranasal, minus TDM

C[C@@H](O)[C@@H]1NC(=O)[C@H](CCCCN)NC(=O)[C@@H](Cc2c[nH]c3ccccc23)NC(=O)[C@H](Cc2ccccc2)NC(=O)[C@@H](NC(=O)[C@H](N)Cc2ccccc2)CSSC[C@@H](C(=O)N[C@H](CO)[C@@H](C)O)NC1=O (relative stereo) [Octreotide, L-Cysteinamide, D-phenylalanyl-L-cysteinyl-L-phenylalanyl-D-tryptophyl-L-lysyl-L-threonyl-N-[2-hydroxy-1-(hydroxymethyl)propyl]-, cyclic (2→7)-disulfide; [R—(R*, R*)]acetate salt]
CL/F ([1]; mouse, in vivo, 1 mg/kg, oral 3.0% DDM): 54900 mL/min
CL/F ([1]; mouse, in vivo, 1 mg/kg, oral […] DDM): 28400 mL/min
half-life ([1]; mouse, in vivo, sc, 1 mg/kg): 41.2 min
t1/2 1 ([1]; oral 0.5% DDM, 1 mg/kg): 1.56 min
t1/2 2 ([1]; oral 0.5% DDM, 1 mg/kg): 52.50 min
AUC1 ([1]; oral 0.5% DDM, 1 mg/kg): 353.03 ng/mL/min
AUC2 ([1]; oral 0.5% DDM, 1 mg/kg): 901.04 ng/mL/min
t1/2 ([1]; oral 0.5% DDM, 1 mg/kg): 52.1 min
t1/2 ([1]; oral 0.5% DDM, 1 mg/kg, listed as octreotide): 53.1 min and 52.1 min
Cmax1 higher than Cmax2 ([1]; oral 0.5% Intravail): more than 2 fold
t1/2 1 ([1]; oral 3.0% DDM, 1 mg/kg): 1.33 min
t1/2 2 ([1]; oral 3.0% DDM, 1 mg/kg): 22.28 min
AUC1 ([1]; oral 3.0% DDM, 1 mg/kg): 21.50 ng/mL/min
AUC2 ([1]; oral 3.0% DDM, 1 mg/kg): 119.74 ng/mL/min
t1/2 ([1]; oral 3.0% DDM, 1 mg/kg): 23.6 min
t1/2 1 ([1]; oral […] DDM, 1 mg/kg): 0.96 min
AUC1 ([1]; oral […] DDM, 1 mg/kg): 97.80 ng/mL/min
AUC2 ([1]; oral […] DDM, 1 mg/kg): 132.90 ng/mL/min
t1/2 ([1]; oral […] DDM, 1 mg/kg): 25.8 min
t1/2 1 ([1]; s.c., 1 mg/kg): 2.04 min
t1/2 2 ([1]; s.c., 1 mg/kg): 39.15 min
AUC1 ([1]; s.c., 1 mg/kg): 38.39 ng/mL/min
AUC2 ([1]; s.c., 1 mg/kg): 251.73 ng/mL/min

CCCCCCCCCCO[C@@H]1O[C@H](CO)[C@@H](O[C@H]2O[C@H](CO)[C@@H](O)[C@H](O)[C@H]2O)[C@H](O)[C@H]1O [Decyl Maltoside, decyl-β-D-maltoside]
Blood Glucose Concentration (blood glucose [2]; 130 min): 95 mg/dL
Blood Glucose Concentration (blood glucose [2]; 140 min): 99 mg/dL
Blood Glucose Concentration (blood glucose [2]; 180 min): 180 mg/dL
effect on ocular glucagon absorption / blood D-glucose (blood glucose [2]): increase significantly
effect on blood glucose / ocular insulin absorption (blood glucose [3]): maintained in the normoglycemic (80-120 mg/dl) or near-normoglycemic (120-160 mg/dl) range
Blood Glucose Concentration (blood glucose [3]; 80 min): 110 mg/dL
Blood Glucose Concentration (blood glucose [3]; 90 min): 120 mg/dL
Blood Glucose Concentration (blood glucose [3]; 100 min): 92 mg/dL
Blood Glucose Concentration (blood glucose [3]; 110 min): 81 mg/dL
Blood Glucose Concentration (blood glucose [3]; 120 min): 87 mg/dL
effect on ocular insulin absorption (alkyl chain length comparison) (blood glucose [3]): less absorption enhancing activity

CCCCCCCCCCCCCO[C@@H]1O[C@H](CO)[C@@H](O[C@H]2O[C@H](CO)[C@@H](O)[C@H](O)[C@H]2O)[C@H](O)[C@H]1O [Tridecyl Maltoside, tridecyl-β-D-maltoside]
Blood Glucose Concentration (blood glucose [2]; 130 min): 82 mg/dL
effect on ocular glucagon absorption / blood D-glucose (blood glucose [2]): increase significantly
effect on blood glucose / ocular insulin absorption (blood glucose [3]): effective as absorption enhancers
Blood Glucose Concentration (blood glucose [3]; 40 min): 100 mg/dL
Blood Glucose Concentration (blood glucose [3]; 50 min): 87 mg/dL
Blood Glucose Concentration (blood glucose [3]; 80 min): 79 mg/dL
Blood Glucose Concentration (blood glucose [3]; 90 min): 85 mg/dL
Blood Glucose Concentration (blood glucose [3]; 100 min): 76 mg/dL
Blood Glucose Concentration (blood glucose [3]; 110 min): 74 mg/dL
Blood Glucose Concentration (blood glucose [3]; 120 min): 75 mg/dL
effect on ocular insulin absorption (blood glucose [3]; […] enhancer with insulin eye drops): sustained for the two hour time course of the experiment
effect on ocular insulin absorption (alkyl chain length comparison) (blood glucose [3]): more effective

CCCCCCCOC1O[C@H](CO)[C@@H](O)[C@H](O)[C@H]1O (stereo partly drawn) [heptylglucoside, heptylglucopyranoside]
effect on blood glucose / ocular insulin absorption (blood glucose [3]): ineffective

CCCCCCOC1O[C@H](CO)[C@@H](O)[C@H](O)[C@H]1O (stereo partly drawn) [hexylglucoside, Hexylglucopyranoside]
effect on blood glucose / ocular insulin absorption (blood glucose [3]): ineffective

COc1ccc2[nH]cc(CCNC(C)=O)c2c1 [melatonin, 5-methoxy-N-acetyltryptamine]
mean elimination half-life ([4]; human, in vivo): roughly 45 minutes
absolute bioavailability ([4]; oral tablets, normal healthy volunteers (DeMuro et al.)): approximately 15%
oral bioavailability (estimated) ([4]; oral): 30-50%
bioavailability ([5]; with 1% to 2% alkylsaccharide): at least 75%
bioavailability ([5]; without alkylsaccharide): less than 50%
time to maximal concentration vs tablets without alkylsaccharide ([5]; with alkylsaccharide): approximately one half the time

CCCCCCCCCOC1O[C@H](CO)[C@@H](O)[C@H](O)[C@H]1O (stereo partly drawn) [nonylglucoside, nonylglucopyranoside]
effect on blood glucose / ocular insulin absorption (blood glucose [3]): effectively stimulated insulin absorption
Blood Glucose (blood glucose [3]; insulin eye drops + 0.5%, reduced level, time not given): 150 mg/dL
Blood Glucose (blood glucose [3]; insulin eye drops + 0.5%, starting level): 297 mg/dL

CCCCCCCCO[C@@H]1O[C@H](CO)[C@@H](O[C@H]2O[C@H](CO)[C@@H](O)[C@H](O)[C@H]2O)[C@H](O)[C@H]1O [octyl maltoside, Octyl-β-D-maltoside]
effect on ocular insulin absorption (alkyl chain length comparison) (blood glucose [3]): less absorption enhancing activity

decylsucrose
Blood Glucose (blood glucose [3]; insulin eye drops + 0.5%, 120 min): 164 mg/dL
Blood Glucose (blood glucose [3]; insulin eye drops + 0.5%, time 0): 313 mg/dL

dodecylsucrose [Dodecyl Sucrose]
Blood Glucose Concentration (blood glucose [2]; 130 min): 111 mg/dL
Blood Glucose Concentration (blood glucose [2]; 140 min): 143 mg/dL
Blood Glucose Concentration (blood glucose [2]; 150 min): 202 mg/dL
Blood Glucose Concentration (blood glucose [2]; 160 min): 247 mg/dL
Blood Glucose Concentration (blood glucose [2]; 170 min): 242 mg/dL
Blood Glucose Concentration (blood glucose [2]; 180 min): 234 mg/dL
Blood Glucose Concentration (blood glucose [2]; 190 min): 211 mg/dL
effect on ocular glucagon absorption / blood D-glucose (blood glucose [2]): increase significantly
Blood Glucose Concentration (blood glucose [3]; 40 min): 120 mg/dL
Blood Glucose Concentration (blood glucose [3]; 90 min): 86 mg/dL
Blood Glucose (blood glucose [3]; insulin eye drops + […], 120 min): 150 mg/dL
Blood Glucose (blood glucose [3]; insulin eye drops + […], time 0): 335 mg/dL

insulin (Humalog)
lowest blood glucose level (blood glucose [6]; insulin + […] TDM intranasal, about 60 minute time point (about 30 min after insulin)): about 80 mg/dl
blood glucose level (blood glucose [6]; insulin + […] TDM intranasal, from about 75 minute time point): 80 to 100 mg/dL

insulin: insulin
return of blood glucose to normoglycemic levels (blood glucose [6]; [7]): never return to normoglycemic levels
time after insulin administration at which blood glucose starts to decline (blood glucose [6]; [7]): about 110 minutes
time mark at which blood glucose starts to decline (blood glucose [6]; [7]): ~120 min

regular porcine insulin
effect on blood D-glucose (blood glucose [3]; 0.2% in saline only, no enhancer, eye drops): remained elevated
